Test results from PMC3784064, “A phase I/II study of carfilzomib 2–10-min infusion in patients with advanced solid tumors” (Cancer Chemotherapy and Pharmacology, 2013).
Where two headings read alike, the source gives them in different places.

Assays:
[1] = system: patients with advanced solid tumors; assay: Safety: adverse events graded by NCI CTCAE v3.0; assay type: in vivo
Excerpt: (§1) The phase I dose-escalation portion of the study followed the standard 3 + 3 design. Patients were enrolled at two sites in sequential cohorts of 3–6 patients each to establish the MTD. The MTD was defined as the highest dose up to the MPD at which […] of six patients experienced treatment-related dose-limiting toxicities (DLT) during the first cycle. DLTs were defined as treatment-related ≥grade 2 neuropathy with pain, ≥grade 3 non-hematologic toxicity, grade 4 neutropenia or thrombocytopenia lasting 7 or more days, or thrombocytopenia with bleeding. Toxicity was graded according to NCI CTCAE v3.0 [19].
(§2) All patients who received at least one dose of study treatment were evaluable for the safety analysis. After the initiation of carfilzomib, adverse events (AEs) were evaluated at each visit. Patients completed a comprehensive neurologic evaluation and radiographic assessment of tumor burden using computerized tomography (CT) at baseline and every 8 weeks for the first 24 weeks, then every 12 weeks thereafter or at treatment discontinuation. Patients who received at least one cycle of treatment and had both baseline and post-baseline disease assessments were evaluable for efficacy. Treatment response was assessed according to RECIST 1.0 [18]. Patients with stable disease (SD) or an objective response (CR or PR) after two cycles continued treatment until disease progression or unacceptable toxicity.

[2] = system: patients with advanced solid tumors; assay: Phase I dose escalation (3 + 3): DLT and MTD determination; assay type: in vivo
Method: Carfilzomib (Onyx Pharmaceuticals, Inc, South San Francisco, CA) was administered by intravenous infusion over 2–10 min on days 1, 2, 8, 9, 15, and 16 of a 28-day cycle. For the phase I dose-escalation portion, the starting dose in all cohorts for days 1 and 2 of cycle 1 was 20 mg/m^2, based on the tolerated dose identified in hematologic malignancies. On all remaining cycle 1 dosing days (days 8, 9, 15, and 16) and in all subsequent cycles, carfilzomib was administered at a dose of 20 mg/m^2 in cohort 1 (20/20 mg/m^2), 27 mg/m^2 in cohort 2 (20/27 mg/m^2), and 36 mg/m^2 in cohort 3 (20/36 mg/m^2). Stepped-up dosing in cycle 1 and dexamethasone premedication were adopted to abrogate fever, chills and/or rigors, and dyspnea, all of which were […] observed during initial therapy in MM trials. Dexamethasone 4 mg (intravenous or oral) was administered prior to each carfilzomib dose for the first cycle and during subsequent cycles when indicated. Upon completion of 12 treatment cycles, patients had the option of enrolling in an open-label extension study, PX-171-010 (NCT00884312).
as §1

[3] = system: proteasome chymotrypsin-like (CT-L) activity in whole blood and PBMCs; assay: Pharmacodynamics: proteasome CT-L activity, fluorogenic LLVY-AMC substrate assay; assay type: in vivo, human; details: for Median proteasome inhibition / proteasome inhibition, range: day 1 of cycle 2
Method: Whole blood was collected on day 1 of the first two cycles prior to and 1 h after infusion for measurement of proteasome activity in whole blood and peripheral blood mononuclear cells (PBMCs). CT-L activity was assessed using a fluorogenic substrate assay with succinyl–Leu–Leu–Val–Tyr–AMC (LLVY) as previously described.

advanced solid tumors = assay: Antitumor activity, treatment response by RECIST 1.0; assay type: in vivo, human
Method: The primary objective of the phase I dose-escalation portion of the study was to determine the maximum tolerated dose (MTD) of carfilzomib up to a maximum planned dose (MPD) of 20/36 mg/m^2. The primary objective of the expansion (various tumor types) and phase II tumor-specific portions was to determine the disease control rate [DCR = complete response (CR) + partial response (PR) + stable disease (SD)] as defined by RECIST 1.0 [18] after four cycles of treatment at the MTD or MPD. Secondary objectives included pharmacokinetics (PK) and pharmacodynamics (PDn) of carfilzomib.
Once dose escalation was completed, an additional 11 evaluable patients with assorted tumor types could enroll in the expansion cohort to receive carfilzomib at the MTD/MPD. In the phase II tumor-specific portion of the study, cohorts of patients with NSCLC, SCLC, ovarian cancer, and renal cancer were to be treated at the MTD/MPD utilizing a Simon two-stage design. Tumor types included in the phase II tumor-specific cohorts were selected based on efficacy results from the phase I dose-escalation portion and preclinical data.
as §2
Continuous and categorical data were summarized with descriptive statistics or frequencies and percentages, respectively. For the phase II tumor-specific portion, the Simon two-stage sample size calculation applied a null hypothesis objective response rate (ORR = CR + PR) of 2 % and an alternative hypothesis ORR of 15 %, with the type I error at 5 % and a power of 0.8. For stage 1, 11 evaluable patients were to be enrolled in each of the four solid tumor cohorts. […] Because there were multiple study sites, over enrollment was permitted.

[4] = human, in vivo, 20 mg/m2
Method: (§3) Serial blood samples were collected on days 1 and 16 of cycle 1 and day 16 of cycle 2 as follows: predose, immediately post-dose, and then at 5, 15, and 30 min, and 1, 2, and 4 h post-dose. Plasma samples for PK studies were assayed using validated liquid chromatography/mass spectrometry with a lower limit of detection of 0.10 ng/ml [17].
(§4) Pharmacokinetic parameters were estimated by non-compartmental analysis using WinNonlin Enterprise Version 5.2 (Pharsight Inc., Mountain View, CA).

[5] = system: human solid tumor xenograft model; design: method as in PMID 17616698; details: consecutive-day dosing; cited from earlier work
solid tumor cell lines = system: solid tumor cell lines; design: method as in PMID 17616698; details: 1-h pulse, replicating clinical pharmacokinetics; cited from earlier work
proteasome in PBMCs = system: proteasome in PBMCs; design: method as in PMID 22761464; details: 20/27 mg/m^2, patients with hematologic malignancies; cited from earlier work
clinical = details: human, in vivo
Method: as §3, §4

patients with MM = details: human, in vivo, iv; cited from earlier work
[6] = 20 mg/m^2, one hour after administration
[7] = 27 mg/m^2, one hour after administration
[8] = 36 mg/m^2, one hour after administration

Compound: CC(C)C[C@H](NC(=O)[C@H](CCc1ccccc1)NC(=O)CN1CCOCC1)C(=O)N[C@@H](Cc1ccccc1)C(=O)N[C@@H](CC(C)C)C(=O)[C@@]1(C)CO1 [carfilzomib]
- AE: fatigue ([1]; human, in vivo): 35.7%
- AE: headache ([1]; human, in vivo): 42.9%
- AE: hypokalemia ([1]; human, in vivo): 35.7%
- patients who discontinued due to AEs ([1]; human, in vivo): 14.3%
- patients who discontinued due to an AE ([1]; human, in vivo): 10.8%
- patients who missed at least one carfilzomib dose due to AEs ([1]; human, in vivo): 29.2%
- patients with carfilzomib dose reduced due to AEs of elevated blood creatinine/decreased CrCl ([1]; human, in vivo): 12.3%
- carfilzomib dose reduced due to AEs ([1]; in vivo): No patients
- deaths considered related to carfilzomib ([1]; on study or within 30 days of ending treatment): No deaths
- MPD recommended for the expansion and phase II tumor-specific portions ([2]; human, in vivo, iv, 28 days): 20/36
- dose-limiting toxicities (DLT) ([2]; in vivo): no DLTs
- maximum tolerated dose (MTD) ([2]; phase I dose-escalation portion, up to the MPD of 20/36 mg/m^2): No MTD was identified
- Median proteasome inhibition [3, 6]: 83.4%
- proteasome inhibition, range [3, 6]: 82.9–85.5%
- Median proteasome inhibition [3, 7]: 91.6%
- proteasome inhibition, range [3, 7]: 79.0–93.2%
- Median proteasome inhibition [3, 8]: 88.6%
- proteasome inhibition, range [3, 8]: 54.7–99.4%
- recovery of proteasome activity by the start of the second cycle ([3]; PBMCs): there was recovery
- recovery of constitutive proteasome activity between cycles ([3]; whole blood): Minimal recovery
- inhibition of proteasome CT-L activity ([3]; whole blood and PBMCs, one hour after administration on day 1 of cycle 2, all doses): at least 80%
- PD as best response (advanced solid tumors; expansion and phase II patients, 29/51, 20/36 mg/m^2): 56.9%
- patients with SD for 6 months or longer (advanced solid tumors; expansion and phase II tumor-specific cohorts, 20/36 mg/m^2): four
- patients with SD after two cycles (advanced solid tumors; expansion and phase II tumor-specific cohorts, 22 of 51 evaluable patients, 20/36 mg/m^2): 43.1%
- PR or better (advanced solid tumors; expansion and phase II tumor-specific cohorts, 51 evaluable patients, 20/36 mg/m^2, after four cycles or over the study period): No patients
- reduction in tumor burden (advanced solid tumors; one patient with renal cancer, 20/36 mg/m^2, after five cycles): > 80%
- progressive disease (PD) (advanced solid tumors; phase I dose-escalation portion, 12 evaluable patients): eight
- confirmed partial response (PR) (advanced solid tumors; phase I dose-escalation portion, 20/36 mg/m^2, 12 evaluable patients): two
- AUClast [4]: 0.269 ± 0.0617 µg·h/mL
- CL [4]: 136 ± 52.8 L/h
- Cmax [4]: 3.41 ± 0.0515 µg/mL
- antitumor activity compared with bortezomib or carfilzomib dosed on days 1 and 4 [5]: more effective antitumor activity
- potency at killing solid tumor cell lines compared with bortezomib (solid tumor cell lines): more potent than bortezomib
- proteasome inhibition (proteasome in PBMCs): > 90%
- AUC(0-t) (clinical; 20 mg/m2, AUClast): 0.251 ± 0.092 µg·h/mL
- clearance (clinical; 20 mg/m2, CL): 4380 mL/min
- Cmax (clinical; 20 mg/m2, Cmax): 2.39 ± 0.104 µg/mL
- AUC(0-t) (clinical; 27 mg/m2, AUClast): 0.379 ± 0.0248 µg·h/mL
- clearance (clinical; 27 mg/m2, CL): 2500 mL/min
- Cmax (clinical; 27 mg/m2, Cmax): 4.23 ± 0.0488 µg/mL
- Vd (clinical; 27 mg/m2, V ss): 11.1 ± 4.45 L
- half-life (clinical; 27 mg/m2, t 1/2): 21 min
- AUC(0-t) (clinical; 36 mg/m2, AUClast): 0.594 ± 0.0525 µg·h/mL
- clearance (clinical; 36 mg/m2, CL): 1930 mL/min
- Cmax (clinical; 36 mg/m2, Cmax): 5.718 ± 0.0465 µg/mL
- Vd (clinical; 36 mg/m2, V ss): 9.33 ± 4.8 L
- half-life (clinical; 36 mg/m2, t 1/2): 52.2 min
- half-life (clinical; iv, half-life): < 60 min
- tolerable dose (patients with MM): 20/27
